From the supplement of paper PMC13386468

Key:
Assay in all cases: IC50 for competition of protein binding to Kinobeads
Conditions in all cases: assay detail: Kinobeads competition in P. falciparum blood-stage lysate
UniProt C0H4K6 = biological target: UniProt C0H4K6
UniProt C0H5J6 = biological target: UniProt C0H5J6
UniProt C6KSP9 = biological target: UniProt C6KSP9
UniProt C6KTB4 = biological target: UniProt C6KTB4
UniProt C6KTC7 = biological target: UniProt C6KTC7
UniProt O77388 = biological target: UniProt O77388
UniProt O96203 = biological target: UniProt O96203
UniProt O96271 = biological target: UniProt O96271
UniProt Q8I0V2 = biological target: UniProt Q8I0V2
UniProt Q8I1Q9 = biological target: UniProt Q8I1Q9
UniProt Q8I1S0 = biological target: UniProt Q8I1S0
UniProt Q8I266 = biological target: UniProt Q8I266
UniProt Q8I2S6 = biological target: UniProt Q8I2S6
UniProt Q8I2U5 = biological target: UniProt Q8I2U5
UniProt Q8I2W4 = biological target: UniProt Q8I2W4
UniProt Q8I2X0 = biological target: UniProt Q8I2X0
UniProt Q8I395 = biological target: UniProt Q8I395
UniProt Q8I3I5 = biological target: UniProt Q8I3I5
UniProt Q8I423 = biological target: UniProt Q8I423
UniProt Q8I445 = biological target: UniProt Q8I445
UniProt Q8I447 = biological target: UniProt Q8I447
UniProt Q8I5A4 = biological target: UniProt Q8I5A4
UniProt Q8I5A9 = biological target: UniProt Q8I5A9
UniProt Q8I5B2 = biological target: UniProt Q8I5B2
UniProt Q8I5H4 = biological target: UniProt Q8I5H4
UniProt Q8I5H7 = biological target: UniProt Q8I5H7
UniProt Q8I635 = biological target: UniProt Q8I635
UniProt Q8I6T3 = biological target: UniProt Q8I6T3
UniProt Q8IAY9 = biological target: UniProt Q8IAY9
UniProt Q8IDR5 = biological target: UniProt Q8IDR5
UniProt Q8IDV1 = biological target: UniProt Q8IDV1
UniProt Q8IE50 = biological target: UniProt Q8IE50
UniProt Q8IEN3 = biological target: UniProt Q8IEN3
UniProt Q8IHP1 = biological target: UniProt Q8IHP1
UniProt Q8IHY0 = biological target: UniProt Q8IHY0
UniProt Q8II11 = biological target: UniProt Q8II11
UniProt Q8IIA2 = biological target: UniProt Q8IIA2
UniProt Q8IIC9 = biological target: UniProt Q8IIC9
UniProt Q8III5 = biological target: UniProt Q8III5
UniProt Q8IIJ9 = biological target: UniProt Q8IIJ9
UniProt Q8IIR9 = biological target: UniProt Q8IIR9
UniProt Q8IJI7 = biological target: UniProt Q8IJI7
UniProt Q8IJP3 = biological target: UniProt Q8IJP3
UniProt Q8IKR1 = biological target: UniProt Q8IKR1
UniProt Q8ILI2 = biological target: UniProt Q8ILI2
UniProt Q8ILI9 = biological target: UniProt Q8ILI9
UniProt Q8IM10 = biological target: UniProt Q8IM10
UniProt Q8IM71 = biological target: UniProt Q8IM71
UniProt Q9TY94 = biological target: UniProt Q9TY94
UniProt Q9U0I0 = biological target: UniProt Q9U0I0
UniProt Q9U0N4 = biological target: UniProt Q9U0N4
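Also: native unpurified kinases from lysate captured on beads bearing immobilized kinase inhibitors, with bead-bound kinases quantified by mass spectrometry across compound doses.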

UniProt Q8I423, sequence (Q8I423 whole entry): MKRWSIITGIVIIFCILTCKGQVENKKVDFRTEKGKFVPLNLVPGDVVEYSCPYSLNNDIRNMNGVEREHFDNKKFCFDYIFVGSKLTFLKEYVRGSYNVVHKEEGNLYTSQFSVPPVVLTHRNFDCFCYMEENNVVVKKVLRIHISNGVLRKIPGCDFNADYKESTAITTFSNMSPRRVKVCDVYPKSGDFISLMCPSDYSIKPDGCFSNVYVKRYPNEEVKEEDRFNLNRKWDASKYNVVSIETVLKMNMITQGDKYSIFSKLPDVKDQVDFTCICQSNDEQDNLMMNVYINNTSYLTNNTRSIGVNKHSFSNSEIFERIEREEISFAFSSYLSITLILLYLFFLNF
UniProt Q8IIJ9, sequence (Q8IIJ9 whole entry): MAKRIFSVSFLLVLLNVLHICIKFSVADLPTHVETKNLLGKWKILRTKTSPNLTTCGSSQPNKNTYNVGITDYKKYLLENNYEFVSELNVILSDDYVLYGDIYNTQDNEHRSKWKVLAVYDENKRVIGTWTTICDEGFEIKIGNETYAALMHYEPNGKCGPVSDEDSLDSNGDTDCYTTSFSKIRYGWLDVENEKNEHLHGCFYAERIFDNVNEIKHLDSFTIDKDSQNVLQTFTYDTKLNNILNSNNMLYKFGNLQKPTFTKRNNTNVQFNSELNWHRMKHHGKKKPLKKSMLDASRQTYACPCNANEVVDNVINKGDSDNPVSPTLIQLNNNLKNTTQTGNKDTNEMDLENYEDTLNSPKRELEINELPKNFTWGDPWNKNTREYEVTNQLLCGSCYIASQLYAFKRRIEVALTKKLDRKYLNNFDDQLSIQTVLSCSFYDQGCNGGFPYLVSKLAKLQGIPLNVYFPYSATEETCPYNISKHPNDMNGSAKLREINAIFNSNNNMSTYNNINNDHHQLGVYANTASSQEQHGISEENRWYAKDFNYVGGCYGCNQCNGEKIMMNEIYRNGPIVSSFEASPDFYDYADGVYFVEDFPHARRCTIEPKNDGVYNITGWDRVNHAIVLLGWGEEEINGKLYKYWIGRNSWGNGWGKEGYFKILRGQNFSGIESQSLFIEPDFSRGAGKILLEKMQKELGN
UniProt Q8I395, sequence (Q8I395 whole entry): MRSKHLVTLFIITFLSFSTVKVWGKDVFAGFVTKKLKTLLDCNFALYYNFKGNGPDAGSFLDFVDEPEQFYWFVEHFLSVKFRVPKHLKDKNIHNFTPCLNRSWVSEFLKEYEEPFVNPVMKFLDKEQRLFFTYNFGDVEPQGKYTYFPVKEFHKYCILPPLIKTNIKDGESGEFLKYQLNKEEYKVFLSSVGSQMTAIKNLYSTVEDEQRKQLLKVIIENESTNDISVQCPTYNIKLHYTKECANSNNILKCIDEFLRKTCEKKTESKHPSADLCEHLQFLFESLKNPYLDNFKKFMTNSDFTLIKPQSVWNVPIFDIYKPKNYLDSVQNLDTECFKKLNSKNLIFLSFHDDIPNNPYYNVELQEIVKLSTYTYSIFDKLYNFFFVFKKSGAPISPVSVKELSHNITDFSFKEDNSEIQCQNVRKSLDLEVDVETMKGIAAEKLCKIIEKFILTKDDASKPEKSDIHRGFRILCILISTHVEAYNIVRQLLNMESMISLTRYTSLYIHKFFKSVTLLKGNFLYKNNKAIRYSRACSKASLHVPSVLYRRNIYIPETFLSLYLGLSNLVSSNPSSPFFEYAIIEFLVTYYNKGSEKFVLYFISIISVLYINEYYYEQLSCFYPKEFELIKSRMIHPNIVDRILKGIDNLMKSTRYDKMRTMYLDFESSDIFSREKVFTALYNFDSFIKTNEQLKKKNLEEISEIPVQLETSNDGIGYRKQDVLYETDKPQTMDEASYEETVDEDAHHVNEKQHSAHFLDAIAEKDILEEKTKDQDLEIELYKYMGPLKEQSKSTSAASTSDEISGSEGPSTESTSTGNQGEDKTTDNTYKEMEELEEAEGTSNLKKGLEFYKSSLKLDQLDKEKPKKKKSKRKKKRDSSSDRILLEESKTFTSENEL
UniProt Q8I266, sequence (Q8I266 whole entry): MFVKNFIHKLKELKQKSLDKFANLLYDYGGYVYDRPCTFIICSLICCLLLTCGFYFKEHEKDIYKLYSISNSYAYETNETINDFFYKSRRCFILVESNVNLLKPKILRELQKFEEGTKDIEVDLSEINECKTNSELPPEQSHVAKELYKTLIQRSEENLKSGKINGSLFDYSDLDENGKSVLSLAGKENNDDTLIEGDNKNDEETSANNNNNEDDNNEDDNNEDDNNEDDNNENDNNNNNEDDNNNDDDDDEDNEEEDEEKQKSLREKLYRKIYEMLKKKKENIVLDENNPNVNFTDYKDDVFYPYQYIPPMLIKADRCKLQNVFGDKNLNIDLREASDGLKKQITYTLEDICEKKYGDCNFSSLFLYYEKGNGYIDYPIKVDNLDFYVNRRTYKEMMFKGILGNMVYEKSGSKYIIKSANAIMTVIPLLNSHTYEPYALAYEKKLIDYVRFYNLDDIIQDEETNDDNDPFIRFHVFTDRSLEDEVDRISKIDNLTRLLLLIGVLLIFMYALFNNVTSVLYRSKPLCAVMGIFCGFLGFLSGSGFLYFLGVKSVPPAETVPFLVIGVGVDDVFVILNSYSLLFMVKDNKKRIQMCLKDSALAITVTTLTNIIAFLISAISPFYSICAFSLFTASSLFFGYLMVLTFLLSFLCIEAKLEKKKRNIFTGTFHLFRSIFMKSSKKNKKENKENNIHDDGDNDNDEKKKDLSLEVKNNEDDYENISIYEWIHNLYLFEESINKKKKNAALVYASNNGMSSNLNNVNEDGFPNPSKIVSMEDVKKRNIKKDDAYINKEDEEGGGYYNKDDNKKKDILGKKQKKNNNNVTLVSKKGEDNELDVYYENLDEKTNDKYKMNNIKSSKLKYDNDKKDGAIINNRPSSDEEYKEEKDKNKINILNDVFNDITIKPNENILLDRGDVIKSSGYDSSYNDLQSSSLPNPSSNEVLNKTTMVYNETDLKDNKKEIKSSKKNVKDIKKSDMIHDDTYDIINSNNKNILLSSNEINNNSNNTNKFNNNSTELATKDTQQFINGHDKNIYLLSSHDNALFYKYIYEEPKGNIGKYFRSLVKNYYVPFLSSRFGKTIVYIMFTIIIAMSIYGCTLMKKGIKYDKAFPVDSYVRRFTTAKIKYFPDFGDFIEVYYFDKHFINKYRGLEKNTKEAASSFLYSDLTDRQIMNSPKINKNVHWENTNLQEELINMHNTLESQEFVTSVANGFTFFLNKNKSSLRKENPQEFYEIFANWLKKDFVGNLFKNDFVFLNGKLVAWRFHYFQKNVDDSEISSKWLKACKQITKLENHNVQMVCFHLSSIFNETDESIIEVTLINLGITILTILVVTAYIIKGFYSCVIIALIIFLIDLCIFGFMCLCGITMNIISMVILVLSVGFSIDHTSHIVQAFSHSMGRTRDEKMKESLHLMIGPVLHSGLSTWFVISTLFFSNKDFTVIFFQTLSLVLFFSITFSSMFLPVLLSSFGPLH

For O=c1[nH]c2ccc(Cl)cc2c(NC2CN3CCC2CC3)c1-c1nc2ccccc2[nH]1 (stereo unspecified) [CHIR-124], the IC50 (UniProt C0H4K6) was greater than 20 µM, the IC50 (UniProt C0H5J6) was greater than 20 µM and the IC50 (UniProt C6KSP9) was greater than 20 µM. The IC50 (UniProt C6KTB4) was greater than 20 µM, the IC50 (UniProt C6KTC7) was greater than 20 µM and the IC50 (UniProt O77388) was greater than 20 µM. The IC50 (UniProt O96203) was greater than 20 µM, the IC50 (UniProt O96271) was greater than 20 µM and the IC50 (UniProt Q8I0V2) was greater than 20 µM. It also gave an IC50 (UniProt Q8I1Q9) greater than 20 µM, an IC50 (UniProt Q8I1S0) greater than 20 µM and an IC50 (UniProt Q8I266) greater than 20 µM. It also gave an IC50 (UniProt Q8I2S6) greater than 20 µM, an IC50 (UniProt Q8I2U5) greater than 20 µM and an IC50 (UniProt Q8I2W4) greater than 20 µM. For the same molecule, the IC50 (UniProt Q8I2X0) was greater than 20 µM, the IC50 (UniProt Q8I395) was greater than 20 µM and the IC50 (UniProt Q8I3I5) was greater than 20 µM. It also gave an IC50 (UniProt Q8I423) greater than 20 µM, an IC50 (UniProt Q8I445) greater than 20 µM and an IC50 (UniProt Q8I447) greater than 20 µM. The IC50 (UniProt Q8I5A4) was greater than 20 µM, the IC50 (UniProt Q8I5A9) was greater than 20 µM and the IC50 (UniProt Q8I5B2) was greater than 20 µM. The IC50 (UniProt Q8I5H4) was greater than 20 µM, the IC50 (UniProt Q8I5H7) was greater than 20 µM and the IC50 (UniProt Q8I635) was greater than 20 µM. It also gave an IC50 (UniProt Q8I6T3) greater than 20 µM, an IC50 (UniProt Q8IAY9) greater than 20 µM and an IC50 (UniProt Q8IDR5) greater than 20 µM. For the same molecule, the IC50 (UniProt Q8IDV1) was greater than 20 µM, the IC50 (UniProt Q8IE50) was greater than 20 µM and the IC50 (UniProt Q8IEN3) was greater than 20 µM. For the same molecule, the IC50 (UniProt Q8IHP1) was greater than 20 µM, the IC50 (UniProt Q8IHY0) was greater than 20 µM and the IC50 (UniProt Q8II11) was less than 0.0823 µM. The IC50 (UniProt Q8IIA2) was greater than 20 µM, the IC50 (UniProt Q8IIC9) was greater than 20 µM and the IC50 (UniProt Q8III5) was greater than 20 µM. For the same molecule, the IC50 (UniProt Q8IIJ9) was greater than 20 µM, the IC50 (UniProt Q8IIR9) was greater than 20 µM and the IC50 (UniProt Q8IJI7) was greater than 20 µM. For the same molecule, the IC50 (UniProt Q8IJP3) was greater than 20 µM, the IC50 (UniProt Q8IKR1) was greater than 20 µM and the IC50 (UniProt Q8ILI2) was greater than 20 µM. The IC50 (UniProt Q8ILI9) was greater than 20 µM, the IC50 (UniProt Q8IM10) was greater than 20 µM and the IC50 (UniProt Q8IM71) was greater than 20 µM. The IC50 (UniProt Q9TY94) was greater than 20 µM, the IC50 (UniProt Q9U0I0) was greater than 20 µM and the IC50 (UniProt Q9U0N4) was greater than 20 µM.
